What was measured:
UGT1A1 = molecular target: T1, UGT1A1 (Homo sapiens, UniProt P22309); assay: ATV lactonization by recombinant UGT1A1 (LC-MS); format: in vitro ADME; conditions: among various recombinant UGT enzymes; substrate 0.6 μM and 6 μM
T1 sequence (P22309 26-533): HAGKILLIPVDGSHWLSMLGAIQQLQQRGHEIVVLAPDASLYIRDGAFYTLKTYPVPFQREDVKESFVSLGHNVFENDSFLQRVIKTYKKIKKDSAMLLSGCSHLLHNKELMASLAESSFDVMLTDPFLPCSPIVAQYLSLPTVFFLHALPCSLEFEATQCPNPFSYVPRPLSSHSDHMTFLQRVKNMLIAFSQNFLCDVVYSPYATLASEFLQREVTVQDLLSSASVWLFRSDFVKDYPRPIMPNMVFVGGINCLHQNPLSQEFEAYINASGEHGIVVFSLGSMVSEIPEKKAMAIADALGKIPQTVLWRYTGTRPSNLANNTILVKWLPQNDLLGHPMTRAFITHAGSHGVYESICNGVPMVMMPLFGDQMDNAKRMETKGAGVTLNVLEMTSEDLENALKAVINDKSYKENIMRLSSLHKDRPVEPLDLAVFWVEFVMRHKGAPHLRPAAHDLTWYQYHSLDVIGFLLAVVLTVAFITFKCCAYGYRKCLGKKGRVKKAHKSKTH
Method: (§1) The reaction is started by addition of 10 mM UDP glucuronic acid, the cosubstrate of the UDP glucuronosyl transferases (UGT). The samples were incubated for 30 minutes. The reaction was stopped by addition of 25 μl of ice-cold 250 mM formic acid in acetonitrile and the vortexed samples were immediately placed on ice. […] The samples were centrifuged for 5 minutes at 13,000 rpm and placed in glass vessels for the LC/MS measurement.
(§2) The samples are separated on an XBridge Shield RP18 3.5 μm column with a C8 precolumn with a 1 mM formic acid and acetonitrile gradient for 23 minutes at 30° C. The masses are detected by HCT Esquire plus mass spectrometer, this being after electrospray ionization of the substances separated by the column.

recombinant UGT1A3 = molecular target: T2, recombinant UGT1A3 (Homo sapiens, UniProt P35503); conditions: among various recombinant UGT enzymes; substrate 0.6 μM and 6 μM
T2 sequence (P35503 29-534): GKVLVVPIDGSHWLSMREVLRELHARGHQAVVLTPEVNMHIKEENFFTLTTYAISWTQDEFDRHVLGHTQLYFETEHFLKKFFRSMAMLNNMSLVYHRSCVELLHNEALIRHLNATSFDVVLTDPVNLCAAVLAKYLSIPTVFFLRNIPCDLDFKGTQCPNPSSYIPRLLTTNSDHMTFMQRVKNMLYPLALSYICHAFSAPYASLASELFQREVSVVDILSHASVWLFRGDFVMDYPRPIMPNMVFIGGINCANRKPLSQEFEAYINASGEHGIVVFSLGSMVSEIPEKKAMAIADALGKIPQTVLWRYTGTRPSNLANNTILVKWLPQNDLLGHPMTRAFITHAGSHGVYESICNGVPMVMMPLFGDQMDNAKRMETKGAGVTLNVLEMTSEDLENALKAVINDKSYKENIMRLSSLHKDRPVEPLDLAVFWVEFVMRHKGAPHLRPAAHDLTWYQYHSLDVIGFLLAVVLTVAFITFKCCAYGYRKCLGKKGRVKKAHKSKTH
Method: as §1, §2

UGT1A3 = conditions: human liver microsomes, genotype-phenotype correlation
Method: as §1, §2

## CC(C)c1c(C(=O)Nc2ccccc2)c(-c2ccccc2)c(-c2ccc(F)cc2)n1CC[C@@H](O)C[C@@H](O)CC(=O)O [atorvastatin]
UGT1A1
  activity for the catalysis of the ATV lactonization: only low activity
Recombinant UGT1A3
  specific activity for the catalysis of the ATV lactonization: highest specific activity
UGT1A3
  activity for ATV lactonization in homozygotic UGT1A3*2 carriers compared to wild type samples: increased twofold
